Data on one compound can be found in patent US20230103514A1, “A TOPICAL COMPOSITION COMPRISING AN EXTRACT OF COMBINED HERBS COMPRISING LONGANAE ARILLUS FOR THE SKIN REGENERATION AND THE TREATMENT OR ALLEVIATION OF SKIN WOUND AND THE USE THEREOF” (MEDIHELPLINE CO., LTD, priority 2020, published 2023).

The structures appear in SMILES notation.

One experiment relates to TSLP. Kind of experiment: Inhibitory effect on cytokine expression (RT-PCR, TNF alpha-induced HaCaT cells): TSLP. It counts as cell-based, human. To be noted: TNFα 50 ng/ml, extract 1 μg/ml, Dex 200 nM, non-induced = 1. On the procedure:
(§1) In order to determine the anti-inflammatory activity of inventive extract, following inhibition test of cytokine expression using HaCaT cell was performed according to the procedure disclosed in the literature (Jeong et al., 2019, J. Invest. Dermatol., May; 139 (5): pp1098-1109). ?
(§2) HaCaT cell (human epithelial keratinocyte cell, 300493, CLS) was inoculated into DMEM medium containing 10% Fetal bovine serum, 100 units/ml of penicillin, 100 μg/ml of streptomycin (D6429, Sigma-Aldrich Co. Ltd) and was incubated in the incubator (HERA cell 150i, Thermo Fisher Scientific Co. Ltd.) maintaining optimum humidity (85-95%) and 5% CO2 atmosphere.
(§3) For performing gene expression test, the incubated cells were transferred to 12 wells and 50 ng/ml of TNF alpha (RC214-12, Biobasic Co. Ltd) was treated therewith for 1 hour to induce inflammatory response.
(§4) 1 hour after inducing the inflammation, 1 μg/ml of inventive extract prepared in Examples was treated with identical medium and subjected to incubation for 1 hour. After the incubation, RNA (FATRR-001, Favorgen) was extracted from the cell and cDNA was synthesized from the RNA using by cDNA synthesis kit (RRO36A, TAKARA). […]

The test system of another experiment is IL-1β. The experiment is described as follows: Inhibitory effect on cytokine expression (RT-PCR, TNF alpha-induced HaCaT cells): IL-1β. It is filed as cell-based, human. The note with it: TNFα 50 ng/ml, extract 1 μg/ml, Dex 200 nM, non-induced = 1. On the procedure:
as §1, §2, §3, §4

Take `C[C@@H]1C[C@H]2[C@@H]3CCC4=CC(=O)C=C[C@]4(C)[C@@]3(F)[C@@H](O)C[C@]2(C)[C@@]1(O)C(=O)CO` [Dex, Dexamethasone]: the “TSLP expression (quantitative RT-PCR)” value in the experiment with TSLP was 52.49. Besides, in the experiment with IL-1β, the “IL-1β expression (quantitative RT-PCR)” value is reported as 1.081.
